Assay [1] concerns the target T1, mitoKATP (endogenous, mouse liver mitochondria) (Mus musculus, UniProt Q9CXJ4).
T1 sequence (Q9CXJ4 26-717): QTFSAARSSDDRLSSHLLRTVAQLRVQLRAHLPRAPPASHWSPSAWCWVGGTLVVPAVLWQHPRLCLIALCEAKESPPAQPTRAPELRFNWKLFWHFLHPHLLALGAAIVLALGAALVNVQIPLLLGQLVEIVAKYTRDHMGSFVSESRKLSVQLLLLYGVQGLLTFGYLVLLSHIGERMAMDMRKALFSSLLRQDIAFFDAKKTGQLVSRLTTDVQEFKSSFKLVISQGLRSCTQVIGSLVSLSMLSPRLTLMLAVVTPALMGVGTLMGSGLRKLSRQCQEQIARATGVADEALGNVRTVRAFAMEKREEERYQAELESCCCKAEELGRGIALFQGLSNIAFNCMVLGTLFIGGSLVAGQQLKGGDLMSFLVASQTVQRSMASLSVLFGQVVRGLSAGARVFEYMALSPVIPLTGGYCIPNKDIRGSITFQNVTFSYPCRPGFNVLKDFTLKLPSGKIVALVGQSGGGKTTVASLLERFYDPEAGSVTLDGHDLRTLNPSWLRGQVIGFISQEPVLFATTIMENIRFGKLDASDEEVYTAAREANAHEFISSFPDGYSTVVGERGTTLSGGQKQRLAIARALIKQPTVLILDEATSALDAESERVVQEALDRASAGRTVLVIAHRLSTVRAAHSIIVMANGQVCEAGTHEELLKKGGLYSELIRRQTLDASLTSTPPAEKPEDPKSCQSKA
T1 sequence (Q3URS9 36-406 partner): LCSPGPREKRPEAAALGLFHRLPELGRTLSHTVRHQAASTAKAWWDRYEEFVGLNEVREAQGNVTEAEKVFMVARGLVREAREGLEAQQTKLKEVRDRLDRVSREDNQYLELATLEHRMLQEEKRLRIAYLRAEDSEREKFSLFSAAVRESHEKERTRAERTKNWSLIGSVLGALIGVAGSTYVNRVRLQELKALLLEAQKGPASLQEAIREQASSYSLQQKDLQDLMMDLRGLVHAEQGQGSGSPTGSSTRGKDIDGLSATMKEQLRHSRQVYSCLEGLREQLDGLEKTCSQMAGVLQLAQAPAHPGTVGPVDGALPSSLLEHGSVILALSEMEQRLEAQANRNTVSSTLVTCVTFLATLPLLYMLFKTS
As to the kind of experiment: […]+ uptake, isolated liver mitochondria. Format: biochemical. The following applies: 1 mM MgCl2, 1 uM oligomycin, pH 7.2.

Assay [2] has as its target T2, mitoKATP (endogenous, HeLa mitochondria) (Homo sapiens, UniProt Q9NUT2).
T2 sequence (Q9NUT2 26-735): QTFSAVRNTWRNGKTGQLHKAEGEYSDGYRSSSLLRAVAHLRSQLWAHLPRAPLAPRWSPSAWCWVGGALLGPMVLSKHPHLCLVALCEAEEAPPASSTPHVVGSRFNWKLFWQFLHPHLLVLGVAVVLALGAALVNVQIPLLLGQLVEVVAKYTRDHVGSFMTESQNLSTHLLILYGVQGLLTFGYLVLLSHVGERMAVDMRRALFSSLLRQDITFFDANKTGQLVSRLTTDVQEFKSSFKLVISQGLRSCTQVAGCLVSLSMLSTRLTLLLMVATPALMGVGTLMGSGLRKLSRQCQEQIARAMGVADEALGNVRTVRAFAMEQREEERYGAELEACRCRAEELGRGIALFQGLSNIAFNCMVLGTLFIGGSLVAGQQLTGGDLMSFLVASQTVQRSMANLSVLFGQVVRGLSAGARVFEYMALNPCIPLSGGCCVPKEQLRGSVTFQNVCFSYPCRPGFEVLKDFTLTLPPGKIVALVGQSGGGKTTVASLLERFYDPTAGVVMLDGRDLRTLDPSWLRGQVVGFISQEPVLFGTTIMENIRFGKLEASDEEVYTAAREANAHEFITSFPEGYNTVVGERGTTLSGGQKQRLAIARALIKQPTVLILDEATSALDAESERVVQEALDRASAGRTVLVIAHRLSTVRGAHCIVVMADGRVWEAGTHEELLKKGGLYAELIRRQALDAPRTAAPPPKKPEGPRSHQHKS
T2 sequence (Q96ER9 36-411 partner): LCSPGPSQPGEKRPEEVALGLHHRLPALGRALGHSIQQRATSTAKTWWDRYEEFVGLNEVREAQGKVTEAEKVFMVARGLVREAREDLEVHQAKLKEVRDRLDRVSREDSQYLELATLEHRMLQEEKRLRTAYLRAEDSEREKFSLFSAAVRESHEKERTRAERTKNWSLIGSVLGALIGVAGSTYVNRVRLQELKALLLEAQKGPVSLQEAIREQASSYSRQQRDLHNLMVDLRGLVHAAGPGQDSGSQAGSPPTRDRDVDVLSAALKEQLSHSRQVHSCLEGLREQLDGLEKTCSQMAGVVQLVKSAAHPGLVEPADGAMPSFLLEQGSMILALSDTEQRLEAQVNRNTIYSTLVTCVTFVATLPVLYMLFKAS
Briefly: mitochondrial swelling. Format: biochemical. The following applies: KCl swelling buffer, 1 mM MgCl2, 1 uM oligomycin, pH 7.2.

Take `Nc1ncnc2c1ncn2[C@@H]1O[C@H](COP(=O)(O)OP(=O)(O)OP(=O)(O)O)[C@@H](O)[C@H]1O` [ATP]: the “86Rb+ uptake, isolated liver mitochondria” value in assay [1] (inhibitor, 2 mM ATP) is “neither ATP nor diazoxide were able to alter K^+ fluxes when Mitok was absent”. The “mitochondrial swelling (A520), isolated HeLa mitochondria” value in assay [2] (inhibitor) was “ATP decreases and diazoxide increases the swelling rates”.

Regarding `CC1=NS(=O)(=O)c2cc(Cl)ccc2N1` [diazoxide], in assay [1] (activator, 50 uM diazoxide), the “86Rb+ uptake, isolated liver mitochondria” value is recorded as “neither ATP nor diazoxide were able to alter K^+ fluxes when Mitok was absent”. Besides, the “mitochondrial swelling (A520), isolated HeLa mitochondria” value in assay [2] (activator) is “ATP decreases and diazoxide increases the swelling rates”.
